We go through three compounds from PMC6017121, “New Thiazoline-Tetralin Derivatives and Biological Activity Evaluation” (Molecules : A Journal of Synthetic Chemistry and Natural …, 2018).

Bounds are passed on as bounds.

The test system of data set [1] is human lung carcinoma cell line (A549). Description: MTT cytotoxicity assay on A549. The settings on record: for IC50: MTT, 24 h incubation; for SI A549 (selectivity index): NIH/3T3 versus A549. The class given is cell-based. The procedure: (§1) This is a colorimetric assay that measures the reduction of 3-(4,5-dimethylthiazol-2-yl)-2,4,diphenyltetrazolium bromide (MTT) by mitochondria. All final compounds were tested against human breast adenocarcinoma cell line (MCF-7), human lung carcinoma cell line (A549) and mouse embryooblast cell line (NIH/3T3) to determine their cytotoxic profile. Cancer cells were cultured in RPMI medium (Hyclone, Thermo Scientific, Waltham, MA, USA) at 37 °C in a humidified atmosphere of 95% air and 5% CO2. The studied cells were situated at 2 × 10^4 cells into each well of 96-well microtiter tissue culture plates (Nunc, Denmark) and incubated for 24 h. After that, test compounds were dissolved in DMSO and added to culture wells at varying concentrations (85–1000 µM). After a 24 h incubating period, […] MTT solution (5 mg/mL MTT powder in PBS) was added to each well and the cells were incubated for 4 h at 37 °C. The purple formazan crystals produced were dissolved in DMSO and the absorbance was read by ELISA reader (OD570 nm). The percent values of cell proliferations were calculated relative to controls, whose cell proliferations were accepted as 100% [47].

The subject of data set [2] is A549 cells. The experiment in a line: Annexin V-FITC/propidium iodide flow cytometry on A549. It counts as cell-based, human. The settings on record: A549 cell line, IC50 concentration; for % Early Apoptotic / % Late Apoptotic / % Necrotic / % Viable: 24 h. The procedure:
(§2) Evaluation of apoptosis was carried out through the Annexin V-FITC Apoptosis Detection Kit from BD, Pharmingen, according to the manufacturer’s instruction. […] Then cells were rinsed with cold water twice and resuspended in Annexin V-FITC binding buffer at a concentration of 1 × 10^6 cells/mL. […] of Annexin V-FITC was used to stain the cells. After 15 min of incubation at 25 °C, the cell suspension was centrifugated for 5 min and cells were resuspended in Annexin V-FITC binding buffer. Propidium iodide ([…]) was added and the tubes were situated on ice and away from light. The fluorescence was measured using a flow cytometer. The results were analyzed by using FCSExpress software and represented as percentage of normal and apoptotic cells at various stages. […] The four areas in the diagrams stand for necrotic cells (Q1, positive for PI and negative for annexin/FITC, left square on the top), live cells (Q3, negative for annexin and PI, left square at the bottom), late apoptotic or necrotic cells (Q2, positive for annexin and PI, right square on the top) and apoptotic cells (Q4, negative for PI and positive for annexin, right square at the bottom), respectively. The experiment was repeated three times.

Data set [3] concerns A549 cells. Description: DNA synthesis inhibition (BrdU) on A549.
Description: The 5-bromo-2′-deoxy-uridine (BrdU) cell proliferation assay [48] was used to detect the proliferation of A549 and C6 cells. […] At the end of each day, the cells were labelled with 10 mL BrdU solution for 2 h and then fixed. Anti-BrdU-POD (100 mL) was added and incubated for 90 min. Finally, microtiter plates were washed with phosphate buffered saline (PBS) three times and the cells were incubated with substrate solution until the color was sufficient for photometric detection. […] The growth percentage was evaluated spectrophotometrically versus untreated controls with used cell viability of growth assay. Results for each spectrophotometrical measure were noticed as percent of growth inhibition. All experiments were done in triplicates.
Mean percent absorbance of untreated control cells were assumed 0%. […] Data points represent means for three independent wells ± SD. p < 0.05.
For data set [4], the system named is human breast adenocarcinoma cell line (MCF-7). Description: MTT cytotoxicity assay on MCF-7. The class given is cell-based. The settings on record: for IC50: MTT, 24 h incubation; for SI MCF-7 (selectivity index): NIH/3T3 versus MCF-7. The procedure:
as §1
(In general: Formazan colour is commonly taken as a measure of viable cells.)

The test system of data set [5] is MCF-7 cells. Description: Annexin V-FITC/propidium iodide flow cytometry on MCF-7. The class given is cell-based, human. The settings on record: MCF-7 cell line, IC50 concentration. The procedure:
as §2
For orientation: A flow cytometer gives signals particle by particle.

The test system of data set [6] is mouse embryoblast cell line (NIH/3T3). Description: MTT cytotoxicity assay on NIH/3T3 (healthy cells). It counts as cell-based. The settings on record: NIH3T3, 24 h incubation. The procedure:
as §1

Data set [7] relates to MCF-7 cells. The experiment in a line: DNA synthesis inhibition (BrdU) on MCF-7.
Data set [8] addresses acetylcholinesterase (AChE) (Homo sapiens, UniProt P22303). The experiment in a line: biochemical. To be noted: 80 µg/mL (~160 µM). The procedure: (§3) In order to determine the acetyl- and butyrylcholinesterase enzyme inhibitions, experiments were carried out by making some changes in the method developed by Ellman. Samples were prepared by dissolving in the appropriate solvent. Adding 20 μL enzyme solution (AChE or BuChE, 1 U/mL) and 10 μL sample solution to 2.4 mL buffer solution and it was incubated for 15 min at 37 °C. After incubation, 50 μL DTNB and 75 mM ATCI solution or 20 μL of 25 mM BTCI solution were added and allowed the mixture to incubate at room temperature for 30 min. For the control group, only 10 μL of solvent was added instead of the sample solution provided all protocols are the same. […] Experiments were run in triplicate. The inhibition fractions of AChE […] BuChE enzymes were calculated using the following equation:I(%) = 100 − ([…]) × 100

Data set [9] deals with butyrylcholinesterase (BuChE) (Homo sapiens, UniProt P06276). The experiment in a line: biochemical. The settings on record: 80 µg/mL (~160 µM). The procedure: as §3
Chain of butyrylcholinesterase (BuChE) (P06276 29-602): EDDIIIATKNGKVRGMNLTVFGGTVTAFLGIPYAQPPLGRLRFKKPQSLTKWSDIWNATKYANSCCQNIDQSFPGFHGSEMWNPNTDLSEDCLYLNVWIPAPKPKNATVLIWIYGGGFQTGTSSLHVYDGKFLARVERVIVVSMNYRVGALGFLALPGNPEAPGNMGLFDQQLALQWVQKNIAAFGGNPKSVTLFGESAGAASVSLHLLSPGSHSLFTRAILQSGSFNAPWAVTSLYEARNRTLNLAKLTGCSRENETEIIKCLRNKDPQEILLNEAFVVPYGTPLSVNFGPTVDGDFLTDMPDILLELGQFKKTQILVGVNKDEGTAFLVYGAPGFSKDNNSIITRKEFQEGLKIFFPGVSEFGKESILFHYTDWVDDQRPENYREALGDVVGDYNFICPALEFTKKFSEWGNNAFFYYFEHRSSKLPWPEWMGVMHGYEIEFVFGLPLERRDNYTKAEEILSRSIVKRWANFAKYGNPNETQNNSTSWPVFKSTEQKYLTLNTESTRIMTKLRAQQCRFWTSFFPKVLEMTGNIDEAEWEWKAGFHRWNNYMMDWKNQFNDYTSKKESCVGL

Chain of acetylcholinesterase (AChE) (P22303 32-614, species assumed): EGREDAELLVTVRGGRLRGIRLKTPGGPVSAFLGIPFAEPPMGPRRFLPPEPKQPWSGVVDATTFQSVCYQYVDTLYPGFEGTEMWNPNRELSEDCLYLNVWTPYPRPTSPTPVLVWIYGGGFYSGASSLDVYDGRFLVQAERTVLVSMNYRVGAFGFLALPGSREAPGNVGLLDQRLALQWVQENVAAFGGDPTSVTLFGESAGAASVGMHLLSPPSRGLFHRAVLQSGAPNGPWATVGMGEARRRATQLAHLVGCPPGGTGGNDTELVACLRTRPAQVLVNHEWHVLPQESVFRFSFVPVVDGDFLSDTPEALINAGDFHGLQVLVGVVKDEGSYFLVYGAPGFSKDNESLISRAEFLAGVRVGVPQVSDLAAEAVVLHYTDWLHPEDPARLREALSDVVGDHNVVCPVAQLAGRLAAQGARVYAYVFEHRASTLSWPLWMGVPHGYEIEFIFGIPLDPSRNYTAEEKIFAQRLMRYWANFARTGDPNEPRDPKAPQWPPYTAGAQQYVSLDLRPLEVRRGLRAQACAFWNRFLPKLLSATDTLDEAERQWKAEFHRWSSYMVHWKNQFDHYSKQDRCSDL

The IC50 is the point on the concentration scale where inhibition reaches its midpoint. High values mean weaker potency in that assay, low ones greater potency in that assay. `N.N.[Cl][Pt][Cl]` [Cisplatin, cisplatin, reference compound]: the IC50 in data set [1] stood at 108 ± 11.8 µM. Also, in the data set on A549 cells [2], the “apoptosis (early + late apoptotic cell percentage) A549” value is 40.2%, the “% Early Apoptotic” value worked out at 14.9%, the “% Late Apoptotic” value is listed as 25.3% and the “% Necrotic” value was 6.7%. In addition, the “DNA synthesis inhibition on A549 at IC50/2” value in the data set with A549 cells [3] (IC50/2 concentration (4h 24.3 μM; cisplatin 54.2 μM)) came to 32.86%. Also, in the data set on A549 cells [3] (IC50 concentration (4h 48.6 μM; cisplatin 108.3 μM)), the “DNA synthesis inhibition on A549 at IC50” value amounted to 50.33%. In addition, the midpoint of inhibition in data set [4], the IC50, lay at 100 ± 3.3 µM. For the same compound, the “apoptosis (early + late apoptotic cell percentage) MCF-7” value with MCF-7 cells [5] amounted to 29.9%. For the same compound, in the data set on MCF-7 cells [5] (24 h), the “% Early Apoptotic” value is reported as 2.8%, the “% Late Apoptotic” value was 27.1% and the “% Necrotic” value was found to be 28.1%.

Consider `COc1ccc(-c2csc(=NNC(=O)COc3ccc4c(c3)CCCC4)n2C2CCCCC2)cc1` [Compound 4b, N′-[3-Cyclohexyl-4-(4-methoxyphenyl)thiazole-2(3H)-ylidene]-2-[(5,6,7,8-tetrahydronaphthalen-2-yl)oxy]acetohydrazide], for which the half-maximal inhibitory concentration (IC50) in data set [6] turned out to be 55.7 ± 1.2 µM; in data set [1] (Homo sapiens, A549), 138 ± 7.2 µM; in data set [4] (Homo sapiens, MCF7) it was 69.2 ± 5.8 µM. For the same compound, in data set [1], the “SI A549 (selectivity index)” value came to 0.4. In addition, the “apoptosis (early + late apoptotic cell percentage) A549” value in the data set on A549 cells [2] is listed as 73.6%. The entries for the “% Early Apoptotic” value in the data set with A549 cells [2] and in the data set on MCF-7 cells [5] (24 h) were 6.6% and 0.7%, respectively. Moreover, the entries for the “% Late Apoptotic” value with A549 cells [2] and with MCF-7 cells [5] (24 h) were 67.0% and 29.1%, respectively. The “% Necrotic” value in the data set on A549 cells [2] is given as 15.6%; in the data set with MCF-7 cells [5] (24 h), 63.8%. Moreover, the entries for the “% Viable” value in the data set on A549 cells [2] and in the data set on MCF-7 cells [5] (24 h) were 10.9% and 6.3%, respectively. In addition, in the data set with MCF-7 cells [7] (Homo sapiens, MCF7, 96 h, read-out: DNA synthesis inhibition on MCF-7 at IC50), the inhibition at 69.2 µM turned out to be 48.5%. Further, the “DNA synthesis inhibition on MCF-7 at IC50/2” value in the data set on MCF-7 cells [7] (IC50/2 concentration (4b 34.6 μM; 4d 36.9 μM, b49: 35.9 μM)) is listed as 31.39%. The “SI MCF-7 (selectivity index)” value in data set [4] is reported as 0.8. The “apoptosis (early + late apoptotic cell percentage) MCF-7” value in the data set on MCF-7 cells [5] amounted to 29.8%. Also, the inhibition at 160 µM in data set [8] is 11.1 ± 1.48%; in data set [9], 15.9 ± 1.72%.

As to `O=C(COc1ccc2c(c1)CCCC2)N/N=c1\scc(-c2ccc(F)cc2)n1-c1ccccc1` [Compound 4h, N′-[3-Phenyl-4-(4-florophenyl)thiazole-2(3H)-ylidene]-2-[(5,6,7,8-tetrahydronaphthalen-2-yl)oxy]acetohydrazide], in data set [6], the IC50 worked out at 247 ± 12.2 µM. The same compound returned a 50% inhibitory concentration (IC50) in data set [1] (Homo sapiens, A549) of 48.6 ± 6 µM. Also, the “SI A549 (selectivity index)” value in [1] worked out at 5.1. Moreover, in the data set with A549 cells [2], the “apoptosis (early + late apoptotic cell percentage) A549” value is listed as “over 50%”, the “% Early Apoptotic” value is on record as 23.7%, the “% Late Apoptotic” value is reported as 26.4% and the “% Necrotic” value came to 4.0%. The “% Viable” value in the data set on A549 cells [2] stood at 45.9%. In the data set with A549 cells [3] (Homo sapiens, A549, 4 h, read-out: DNA synthesis inhibition on A549 at IC50, IC50 concentration (4h 48.6 μM; cisplatin 108.3 μM)), the inhibition at 48.6 µM amounted to 50.8%. The same compound showed a 50% inhibitory concentration (IC50) in data set [4] (Homo sapiens, MCF7) of 243 ± 14.9 µM. Further, the “SI MCF-7 (selectivity index)” value in data set [4] amounted to 1.0. In data set [8], this compound had an inhibition at 160 µM of 49.9 ± 1.44%. Also, the inhibition at 80 µg/mL in data set [9] is below 0%.
